The NIST ThermoML archive (doi:10.1021/je025579q)
± gives the expanded uncertainty stated by the source.

Columns and labels:
[1] = 298.15 K; 101.33 kPa; Liquid
[2] = xn = mol fraction of the nth substance listed; settings: 298.15 K, 101.3 kPa, Liquid; for speed of sound: Sing-around technique in a fixed-path interferometer

COC(C)(C)C [2-methoxy-2-methylpropane]
[1]
Settings	mass density [kg/m3]	speed of sound [m/s]
–	735.35 ± 0.36	1036.1 ± 0.5

CCCCO [butan-1-ol]
[1]
Settings	mass density [kg/m3]	speed of sound [m/s]
–	805.67 ± 0.29	1239.8 ± 0.7

CCCCO [butan-1-ol] + CCCCCCCCCC
[2], x1 = 1
Settings	mass density [kg/m3]	speed of sound [m/s]
–	805.67 ± 0.23	1239.8 ± 0.9

CCCCCCCCCC [decane]
[1]
Settings	mass density [kg/m3]	speed of sound [m/s]
–	726.09 ± 0.52	1234.7 ± 1.1

CCCCCCCCCC [decane] + CCCCO
[2]
Settings	mass density [kg/m3]	speed of sound [m/s]
x2 = 0	726.09 ± 0.46	1234.7 ± 1.4
x2 = 0.04848	727.38 ± 0.45	1230.8 ± 1.3
x2 = 0.09526	728.99 ± 0.44	1228.9 ± 1.3
x2 = 0.2045	733.33 ± 0.41	1225.6 ± 1.2
x2 = 0.2974	737.65 ± 0.39	1223.9 ± 1.2
x2 = 0.3949	742.88 ± 0.37	1222.7 ± 1.1
x2 = 0.4455	745.96 ± 0.36	1222.5 ± 1.1
x2 = 0.4928	749.07 ± 0.34	1222.4 ± 1.1
x2 = 0.5579	753.72 ± 0.33	1222.7 ± 1.1
x2 = 0.5937	756.5 ± 0.32	1222.9 ± 1.1
x2 = 0.7031	766.17 ± 0.3	1224.6 ± 1
x2 = 0.7901	775.35 ± 0.28	1226.7 ± 1
x2 = 0.8707	785.36 ± 0.26	1230.4 ± 1
x2 = 0.948	796.76 ± 0.24	1235.3 ± 0.9
